{"source": "patent US20210177814A1", "about": "“USE OF GUANABENZ OR DERIVATES THEREOF FOR THE TREATMENT OF TYPE I IFN-DEPENDENT PATHOLOGIES” (INSERM (Institut National de la Santé et de la Recherche …, priority 2018, published 2021)", "molecular_target": "T1, TLR9 (Homo sapiens, UniProt Q9NR96)", "T1 sequence (Q9NR96 26-1032)": "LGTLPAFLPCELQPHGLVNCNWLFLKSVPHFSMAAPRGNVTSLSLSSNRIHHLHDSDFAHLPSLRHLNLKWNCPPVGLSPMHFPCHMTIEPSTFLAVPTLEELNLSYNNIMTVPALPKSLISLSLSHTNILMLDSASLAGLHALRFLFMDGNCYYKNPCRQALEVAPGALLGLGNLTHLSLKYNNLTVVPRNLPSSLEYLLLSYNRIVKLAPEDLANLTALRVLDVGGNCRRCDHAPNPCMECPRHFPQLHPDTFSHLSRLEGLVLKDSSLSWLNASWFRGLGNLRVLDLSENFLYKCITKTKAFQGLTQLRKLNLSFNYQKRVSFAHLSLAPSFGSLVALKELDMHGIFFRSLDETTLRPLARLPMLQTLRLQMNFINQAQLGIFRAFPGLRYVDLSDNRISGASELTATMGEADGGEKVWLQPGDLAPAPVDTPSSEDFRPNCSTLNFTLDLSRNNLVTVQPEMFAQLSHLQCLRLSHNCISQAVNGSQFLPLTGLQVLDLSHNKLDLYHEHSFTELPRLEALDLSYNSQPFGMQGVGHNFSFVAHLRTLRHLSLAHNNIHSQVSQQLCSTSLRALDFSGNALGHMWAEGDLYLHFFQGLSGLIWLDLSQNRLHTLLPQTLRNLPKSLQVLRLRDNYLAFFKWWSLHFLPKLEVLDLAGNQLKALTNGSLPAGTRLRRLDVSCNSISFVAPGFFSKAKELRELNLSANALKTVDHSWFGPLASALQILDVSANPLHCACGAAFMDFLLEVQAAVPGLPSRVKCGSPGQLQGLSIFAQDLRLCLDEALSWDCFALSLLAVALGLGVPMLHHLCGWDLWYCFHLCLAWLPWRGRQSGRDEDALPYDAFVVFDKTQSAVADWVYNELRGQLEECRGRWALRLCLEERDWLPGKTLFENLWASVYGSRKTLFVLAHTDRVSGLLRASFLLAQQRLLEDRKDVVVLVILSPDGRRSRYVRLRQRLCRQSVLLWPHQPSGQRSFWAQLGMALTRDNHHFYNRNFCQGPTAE", "experiment": "HEK-Blue hTLR9 SEAP reporter assay", "format": "cell-based", "set-up": "expressed in transfected cells; host or cells: HEK-Blue (HEK 293) hTLR9 reporter cells", "details": "2.5 μM ODN 2006, GBZ 50 μM", "method": "FIG. 1: Guanabenz inhibits TLR3 and TLR9 activation in mouse Flt3-L DCs and human blood pDCs. A) Sorted bone marrow derived Flt3L-DCs were activated for 6 h with 10 μg/mL poly I:C LMW (TLR3 in DC1) or 1 μM ODN 1585 (TLR9 in pDCs). GBZ was added at 50 μM and inhibited IFN-β and Interleukin-6 (IL-6) production in activated cells. B) hTLR4, hTLR3, hTLR9 and hTLR7 expressed in the reporter HEK-Blue™ cells are inhibited by GBZ. TLR-expressing HEK-Blue™ cells were respectively activated with 100 ng/mL LPS, 10 μg/mL poly I:C LMW, 2.5 μM ODN 2006 or 5 μg/mL imiquimod, respectively. GBZ was added at 50 μM. TLR activity was measured indirectly through SEAP activity as absorbance at 405 nm. […] Protein concentration of IFN-α and TNF-α secreted were measured at the indicated time points or at 16 h. […]\nGiven the efficiency of GBZ on mouse TLR3 and TLR9, we turned to human TLRs, in order to extend the relevance of our observations. GBZ-mediated inhibition was first evaluated on NF-kB signaling by monitoring secreted alkaline phosphatase (SEAP) reporter levels in HEK-293 cells expressing TLR3, TLR4, TLR7, TLR9 (FIG. 1B). […] The functionality of the TLR9 transduction pathway was next evaluated by using phospho-flow detection of 40S ribosomal protein S6 (rpS6) phosphorylation, a well characterized early signaling event down-stream of TLR activation by LPS or viruses."}
{"smiles": "NC(N)=N/N=C/c1c(Cl)cccc1Cl", "note": "[GBZ, 2-(2,6-dichlorobenzylidene)-hydrazinecarboximidamide]", "values": [{"measurement": "TLR9-dependent activation of the SEAP reporter", "result": "inhibited"}]}
